How the values were obtained:
Type in all cases: cell-based, human
[1] = system: HPRT; assay: CRISPR knock-in of Pol-II-driven shRNA into CCR5 region of K562 cells, 6-TG selection, HPRT staining; conditions: for obvious cytotoxicity in K562 cells: knock-in
Description: It has been well known that some polymerase III-dependent short-hairpin RNAs have overexpression issues and can induce acute cytotoxicity. […] This is an important concern when considering the use of RNA interference (RNAi) as a potential therapeutic approach, especially in stem cell gene therapy. Here, polymerase II was used as alternative promoter to express microRNA so as to effectuate knockdown of the expression of HPRT. A CRISPR/Cas9 gene editing approach was utilized, and a Cas9 with a single guide RNA (Cas9 RNP) targeting CCR5, together with a single-stranded DNA oligonucleotide donor (ssODN) encoding an HPRT Pol II driven shRNA, was used to enable efficient replacement of the CCR5 locus with a functional HPRT miRNA. […] For knock-in of sh211 and sh734, the obvious cytotoxicity in K562 cells was not observed.

[2] = system: K562 cells; assay: in vitro 6TG selection and stability of transduced K562 cells (VCN, % GFP+); conditions: 6TG selected
Description: 4) 2×10^5 cells of control K562, 6 samples transduced at dilution factor 32 and 6 samples transduced at dilution factor 1 are reseeded in 6-well plate with 4 mL of RPMI without and with 300 nM of 6-thioguanine, respectively. 2.5×10^6 cells of 6 samples transduced at dilution factor 1 are made through mixing transduced and untransduced cells at ratio of 1:3. Two cell pellets (1×10^6 cells each) for DNA & RNA analysis for these 6 samples will be frozen down. The medium is refreshed every 3-4 days. K562 transduced with TL20cw-7SK/sh734-GFP (dilution factor at 256 and 8) will be included as positive controls.
5) Two cell pellets (1×10^6 cells each) for DNA & RNA analysis for 13 samples including control K562 will be frozen down at day 7/14/21 or even 28(MY). Copy numbers of GbG and sh734 are analyzed. The samples at day 21/28 are optional if the copy numbers of all samples are higher than 95% of expected value for day 14. […]
K562 cells were transduced with sh734 for 21 days before initiating 6TG treatment for 14 days (shaded areas). With reference to FIGS. 49A through 49G, vector copy number (VCN) was determined every two weeks from genomic DNA by multiplex RU5 qPCR and absolute quantitation from a standard curve using lentiviral vector (HIV-1-based LTR R-U5) target and human Apolipoprotein B (ApoB) reference sequences. […]

[3] = system: HPRT; assay: HPRT knockdown in transduced K562 cells (qRT-PCR); conditions: after 6TG treatment
Description: With reference to FIG. 50, K562 cells were transduced with TL20c-rGbGM-7SK/sh734 or TL20c GbG^M21 days before initiating 6TG treatment. RNA was isolated and qRT-PCRT was performed to determine the number of copies of sh734 relative to RNU38B and normalized to VCN (relative expression/VCN). Relative expression levels of sh734 and HPRT were determined every two weeks post-transduction. The graph illustrated sh734 plotted on the left Y-axis and the percent of HPRT knockdown related to mock transduced cells (HPRT/mock×100) and normalized to VCN plotted on the right Y axis.
K562 cells were transduced with the sh7-GFP mono-vector reporter construct or CAL-H for 21 days before initiating 6TG. RNA was isolated, and qRT-PCR performed to determine the number of copies of sh734 relative to RNU38B and normalized to VCN (relative expression/VCN). FIGS. 51A and 51B illustrates the percent HPRT knockdown relative to mock transduced cells (HPRT/mock×100) normalized to VCN is plotted on the right Y axis. […] 14 days after selection, HPRT levels became undetectable in transduced cultures. 6TG selected K562 cells continued to grow and express sh734 after 3-months in culture (data not shown). […] At day 21, K562 cultures transduced with the sh7-GFP reporter construct were 35% GFP+ and increased to 88% GFP+ cells by day 42 following 6TG treatment.

| Molecule | obvious cytotoxicity in K562 cells [1] | duration of sh734 expression and function in culture [2] | HPRT levels [3] | HPRT levels (HPRT staining) ([1]; K562 cells after three weeks of 6-TG selection, control 99%) [%] |
| --- | --- | --- | --- | --- |
| sh211: shRNA targeting an HPRT gene, SEQ ID NO: 28 (GGTTATGACCTTGATTTATACCTGACCCATATTAAATCAAGGTCATAACCTTTTT) | not observed |  |  |  |
| sh734: shRNA targeting an HPRT gene, SEQ ID NO: 30 (AGGATATGCCCTTGACTATTTGTCCGACATAGTCAAGGGCATATCCTTTTTT) | not observed | greater than 3 months | less than 10 % of untreated cells |  |
| sh211-3G: sh211 embedded in the miRNA-3G backbone, SEQ ID NO: 25; Pol-II (EF1a) driven (nucleic acid, Synthetic miRNA211-3G, Pol-II (EF1a) driven) CCGGATCAACGCCCTAGGTTTATGTTTGGATGAACTGACATACGCGTATCCGTCTTTTAAATCAAGGTCATAACCGTAGTGAAATATATATTAAACAGGTTATGACCTTGATTTAAAATACGGTAACGCGGAATTCGCAACTATTTTATCAATTTTTTGCGTCGAC |  |  |  | 12 |

Source: patent publication US11795461B2, “Compositions and methods for treating beta-hemoglobinopathies” (CSL Behring Gene Therapy, Inc., priority 2017, dated 2023)
